Measured values published in US20110173718A1, “HERBICIDE TOLERANT PLANTS” (SYNGENTA CROP PROTECTION, INC., priority 2008, published 2011).

Test system: weeds
Test: Glasshouse weed control by HST/HPPD (mesotrione) mixtures, pre-emergence
Assay type: in vivo
Conditions: for colby: Colby synergy score; for % Damage at 14 DAA, 1 g ai ha^−1 mesotrione / % Damage at 14 DAA, no-mesotrione: N = 3
Protocol: Weed seeds are planted out in trays containing suitable soil (for example 50% peat, 50% John Innes soil no 3) and grown in the glass house conditions under 24-27° C. day; 18-21° C. night and approximately a 14 h (or longer in UK summer) photoperiod. Humidity is ˜65% and light levels up to 2000 μmol/m^2 at bench level. Trays are sprayed with test chemicals dissolved in water with 0.2-0.25% X-77 surfactant and sprayed from a boom on a suitable track sprayer moving at about 2 mph in a suitable track sprayer (for example a DeVries spray chamber with the nozzle about 2 inches from the plant tops). Spray volume is suitably 500-1000 l/ha. Sprays are carried out both pre-emergence and over small plants at about 7-12 d post-emergence
Plants are assessed 14 DAT and herbicidal damage is scored on a scale from 0 to 100%. The HST inhibitor compound 2.30 (designated compound A in table 16 and 17), haloxydine (compound 1.1) and compound 2.13 (designated compound AE in tables 16 and 17) are sprayed at rates between 0 and 500 g/ha.

[1] = ALOMY, 16 g/ha + mesotrione 1 g ai/ha
[2] = ALOMY, 31 g/ha + mesotrione 1 g ai/ha
[3] = ALOMY, 63 g/ha + mesotrione 1 g ai/ha
[4] = ALOMY, 125 g/ha + mesotrione 1 g ai/ha
[5] = ALOMY, 250 g/ha + mesotrione 1 g ai/ha
[6] = ALOMY, 500 g/ha + mesotrione 1 g ai/ha
[7] = AMARE, 16 g/ha + mesotrione 1 g ai/ha
[8] = AMARE, 31 g/ha + mesotrione 1 g ai/ha
[9] = AMARE, 63 g/ha + mesotrione 1 g ai/ha
[10] = AMARE, 125 g/ha + mesotrione 1 g ai/ha
[11] = AMARE, 250 g/ha + mesotrione 1 g ai/ha
[12] = AMARE, 500 g/ha + mesotrione 1 g ai/ha
[13] = ECHCG, 16 g/ha + mesotrione 1 g ai/ha
[14] = ECHCG, 31 g/ha + mesotrione 1 g ai/ha
[15] = ECHCG, 63 g/ha + mesotrione 1 g ai/ha
[16] = ECHCG, 125 g/ha + mesotrione 1 g ai/ha
[17] = ECHCG, 250 g/ha + mesotrione 1 g ai/ha
[18] = ECHCG, 500 g/ha + mesotrione 1 g ai/ha
[19] = IPOHE, 16 g/ha + mesotrione 1 g ai/ha
[20] = IPOHE, 31 g/ha + mesotrione 1 g ai/ha
[21] = IPOHE, 63 g/ha + mesotrione 1 g ai/ha
[22] = IPOHE, 125 g/ha + mesotrione 1 g ai/ha
[23] = IPOHE, 250 g/ha + mesotrione 1 g ai/ha
[24] = IPOHE, 500 g/ha + mesotrione 1 g ai/ha
[25] = SETFA, 16 g/ha + mesotrione 1 g ai/ha
[26] = SETFA, 31 g/ha + mesotrione 1 g ai/ha
[27] = SETFA, 63 g/ha + mesotrione 1 g ai/ha
[28] = SETFA, 125 g/ha + mesotrione 1 g ai/ha
[29] = SETFA, 250 g/ha + mesotrione 1 g ai/ha
[30] = SETFA, 500 g/ha + mesotrione 1 g ai/ha
[31] = SOLNI, 16 g/ha + mesotrione 1 g ai/ha
[32] = SOLNI, 31 g/ha + mesotrione 1 g ai/ha
[33] = SOLNI, 63 g/ha + mesotrione 1 g ai/ha
[34] = SOLNI, 125 g/ha + mesotrione 1 g ai/ha
[35] = SOLNI, 250 g/ha + mesotrione 1 g ai/ha
[36] = SOLNI, 500 g/ha + mesotrione 1 g ai/ha

Compound: O=c1c(-c2c(F)ccc(F)c2Cl)c(O)c2cccnc2n1CC(F)F [Compound 2.13]
- colby [1]: 0%
- % Damage at 14 DAA, 1 g ai ha^−1 mesotrione [1]: 0%
- % Damage at 14 DAA, no-mesotrione (ALOMY, 16 g/ha): 0%
- colby [2]: 0%
- % Damage at 14 DAA, 1 g ai ha^−1 mesotrione [2]: 0%
- % Damage at 14 DAA, no-mesotrione (ALOMY, 31 g/ha): 0%
- colby [3]: 0%
- % Damage at 14 DAA, 1 g ai ha^−1 mesotrione [3]: 0%
- % Damage at 14 DAA, no-mesotrione (ALOMY, 63 g/ha): 0%
- colby [4]: 0%
- % Damage at 14 DAA, 1 g ai ha^−1 mesotrione [4]: 0%
- % Damage at 14 DAA, no-mesotrione (ALOMY, 125 g/ha): 0%
- colby [5]: 0%
- % Damage at 14 DAA, 1 g ai ha^−1 mesotrione [5]: 0%
- % Damage at 14 DAA, no-mesotrione (ALOMY, 250 g/ha): 0%
- colby [6]: −1%
- % Damage at 14 DAA, 1 g ai ha^−1 mesotrione [6]: 0%
- % Damage at 14 DAA, no-mesotrione (ALOMY, 500 g/ha): 2%
- colby [7]: 5%
- % Damage at 14 DAA, 1 g ai ha^−1 mesotrione [7]: 7%
- % Damage at 14 DAA, no-mesotrione (AMARE, 16 g/ha): 0%
- colby [8]: 13%
- % Damage at 14 DAA, 1 g ai ha^−1 mesotrione [8]: 23%
- % Damage at 14 DAA, no-mesotrione (AMARE, 31 g/ha): 8%
- colby [9]: 4%
- % Damage at 14 DAA, 1 g ai ha^−1 mesotrione [9]: 33%
- % Damage at 14 DAA, no-mesotrione (AMARE, 63 g/ha): 28%
- colby [10]: 12%
- % Damage at 14 DAA, 1 g ai ha^−1 mesotrione [10]: 45%
- % Damage at 14 DAA, no-mesotrione (AMARE, 125 g/ha): 32%
- colby [11]: 3%
- % Damage at 14 DAA, 1 g ai ha^−1 mesotrione [11]: 57%
- % Damage at 14 DAA, no-mesotrione (AMARE, 250 g/ha): 53%
- colby [12]: 9%
- % Damage at 14 DAA, 1 g ai ha^−1 mesotrione [12]: 70%
- % Damage at 14 DAA, no-mesotrione (AMARE, 500 g/ha): 60%
- colby [13]: 0%
- % Damage at 14 DAA, 1 g ai ha^−1 mesotrione [13]: 0%
- % Damage at 14 DAA, no-mesotrione (ECHCG, 16 g/ha): 0%
- colby [14]: 0%
- % Damage at 14 DAA, 1 g ai ha^−1 mesotrione [14]: 0%
- % Damage at 14 DAA, no-mesotrione (ECHCG, 31 g/ha): 0%
- colby [15]: 3%
- % Damage at 14 DAA, 1 g ai ha^−1 mesotrione [15]: 3%
- % Damage at 14 DAA, no-mesotrione (ECHCG, 63 g/ha): 0%
- colby [16]: 3%
- % Damage at 14 DAA, 1 g ai ha^−1 mesotrione [16]: 3%
- % Damage at 14 DAA, no-mesotrione (ECHCG, 125 g/ha): 0%
- colby [17]: 2%
- % Damage at 14 DAA, 1 g ai ha^−1 mesotrione [17]: 2%
- % Damage at 14 DAA, no-mesotrione (ECHCG, 250 g/ha): 0%
- colby [18]: −2%
- % Damage at 14 DAA, 1 g ai ha^−1 mesotrione [18]: 2%
- % Damage at 14 DAA, no-mesotrione (ECHCG, 500 g/ha): 3%
- colby [19]: 0%
- % Damage at 14 DAA, 1 g ai ha^−1 mesotrione [19]: 0%
- % Damage at 14 DAA, no-mesotrione (IPOHE, 16 g/ha): 0%
- colby [20]: 0%
- % Damage at 14 DAA, 1 g ai ha^−1 mesotrione [20]: 0%
- % Damage at 14 DAA, no-mesotrione (IPOHE, 31 g/ha): 0%
- colby [21]: 7%
- % Damage at 14 DAA, 1 g ai ha^−1 mesotrione [21]: 7%
- % Damage at 14 DAA, no-mesotrione (IPOHE, 63 g/ha): 0%
- colby [22]: 0%
- % Damage at 14 DAA, 1 g ai ha^−1 mesotrione [22]: 0%
- % Damage at 14 DAA, no-mesotrione (IPOHE, 125 g/ha): 0%
- colby [23]: 5%
- % Damage at 14 DAA, 1 g ai ha^−1 mesotrione [23]: 5%
- % Damage at 14 DAA, no-mesotrione (IPOHE, 250 g/ha): 0%
- colby [24]: 0%
- % Damage at 14 DAA, 1 g ai ha^−1 mesotrione [24]: 17%
- % Damage at 14 DAA, no-mesotrione (IPOHE, 500 g/ha): 17%
- colby [25]: 0%
- % Damage at 14 DAA, 1 g ai ha^−1 mesotrione [25]: 0%
- % Damage at 14 DAA, no-mesotrione (SETFA, 16 g/ha): 0%
- colby [26]: 0%
- % Damage at 14 DAA, 1 g ai ha^−1 mesotrione [26]: 0%
- % Damage at 14 DAA, no-mesotrione (SETFA, 31 g/ha): 0%
- colby [27]: 0%
- % Damage at 14 DAA, 1 g ai ha^−1 mesotrione [27]: 0%
- % Damage at 14 DAA, no-mesotrione (SETFA, 63 g/ha): 0%
- colby [28]: 0%
- % Damage at 14 DAA, 1 g ai ha^−1 mesotrione [28]: 0%
- % Damage at 14 DAA, no-mesotrione (SETFA, 125 g/ha): 0%
- colby [29]: 0%
- % Damage at 14 DAA, 1 g ai ha^−1 mesotrione [29]: 0%
- % Damage at 14 DAA, no-mesotrione (SETFA, 250 g/ha): 0%
- colby [30]: 0%
- % Damage at 14 DAA, 1 g ai ha^−1 mesotrione [30]: 0%
- % Damage at 14 DAA, no-mesotrione (SETFA, 500 g/ha): 0%
- colby [31]: −12%
- % Damage at 14 DAA, 1 g ai ha^−1 mesotrione [31]: 5%
- % Damage at 14 DAA, no-mesotrione (SOLNI, 16 g/ha): 0%
- colby [32]: −3%
- % Damage at 14 DAA, 1 g ai ha^−1 mesotrione [32]: 23%
- % Damage at 14 DAA, no-mesotrione (SOLNI, 31 g/ha): 12%
- colby [33]: 4%
- % Damage at 14 DAA, 1 g ai ha^−1 mesotrione [33]: 38%
- % Damage at 14 DAA, no-mesotrione (SOLNI, 63 g/ha): 22%
- colby [34]: 9%
- % Damage at 14 DAA, 1 g ai ha^−1 mesotrione [34]: 53%
- % Damage at 14 DAA, no-mesotrione (SOLNI, 125 g/ha): 33%
- colby [35]: 5%
- % Damage at 14 DAA, 1 g ai ha^−1 mesotrione [35]: 78%
- % Damage at 14 DAA, no-mesotrione (SOLNI, 250 g/ha): 68%
- colby [36]: −1%
- % Damage at 14 DAA, 1 g ai ha^−1 mesotrione [36]: 87%
- % Damage at 14 DAA, no-mesotrione (SOLNI, 500 g/ha): 85%
